Reference: ChEMBL document CHEMBL1641533, “A facile, click chemistry-based approach to assembling fluorescent chemosensors for protein tyrosine kinases” (Bioorg Med Chem Lett, 2011)
Activity calls are given as the source filed them. No cut-off for these calls is given here. Starred links: 1 amine or outer side, 2 acyl side, 3 side chain; linkers in the order of their positions; H or OH if unused. Non-standard residues stand in square brackets, D forms with d. Residues, ends and D or L forms follow the SMILES beside them. X2 = CCN1C(=O)c2cccc3c(-n4cc(C[C@H](N[*:1])C(=O)[*:2])nn4)ccc(c23)C1=O; X1 = O=C([C@H](Cc1cn(-c2ccc3ccc4cccc5ccc2c3c45)nn1)N[*:1])[*:2]; X5 = Cc1cc(=O)[nH]c2cc(-n3cc(C[C@H](N[*:1])C(=O)[*:2])nn3)ccc12; X4 = O=C([C@H](Cc1cn(-c2cc3ccc(O)cc3oc2=O)nn1)N[*:1])[*:2]; X3 = O=C([C@H](Cc1cn(-c2cccc3ccccc23)nn1)N[*:1])[*:2]

What was measured:
[1] = molecular target: Tyrosine-protein kinase Lyn (Homo sapiens) (UniProt P07948); assay: Binding affinity to Lyn assessed as increase of fluorescence after 60 mins relative to control
Chain of Tyrosine-protein kinase Lyn (Homo sapiens) (P07948 2-512 limits assumed): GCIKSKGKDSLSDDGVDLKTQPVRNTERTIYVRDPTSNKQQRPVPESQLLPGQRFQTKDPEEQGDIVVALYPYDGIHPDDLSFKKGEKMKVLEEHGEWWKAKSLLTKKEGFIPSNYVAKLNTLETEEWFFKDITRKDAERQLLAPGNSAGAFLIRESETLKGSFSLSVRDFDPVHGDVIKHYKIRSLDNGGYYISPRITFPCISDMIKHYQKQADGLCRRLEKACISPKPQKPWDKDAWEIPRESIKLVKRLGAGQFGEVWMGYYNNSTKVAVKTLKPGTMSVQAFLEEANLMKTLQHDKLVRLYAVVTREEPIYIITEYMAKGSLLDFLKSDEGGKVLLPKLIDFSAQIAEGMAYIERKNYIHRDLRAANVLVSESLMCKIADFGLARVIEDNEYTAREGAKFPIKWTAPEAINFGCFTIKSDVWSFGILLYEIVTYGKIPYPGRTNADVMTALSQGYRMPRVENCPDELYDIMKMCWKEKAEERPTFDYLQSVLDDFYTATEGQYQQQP

[2] = molecular target: Tyrosine-protein kinase Lyn (Homo sapiens) (UniProt P07948); assay: Binding affinity to Lyn assessed as increase of fluorescence after 60 mins by HPLC analysis
[3] = molecular target: Tyrosine-protein kinase Lyn (Homo sapiens) (UniProt P07948); assay: Binding affinity to Lyn in human K562 CML cells assessed as increase of fluorescence; format: cell-based; details: TDE = time-dependent effect
[4] = molecular target: Tyrosine-protein kinase Lyn (Homo sapiens) (UniProt P07948); assay: Binding affinity to Lyn in human K562 CML cells assessed as increase of fluorescence after 60 mins in presence of SFK inhibitor SU6656; format: cell-based
[5] = molecular target: Tyrosine-protein kinase Lyn (Homo sapiens) (UniProt P07948); assay: Binding affinity to Lyn in human K562 CML cells assessed as increase of fluorescence after 60 mins in presence of Bcr-Abl inhibitor Imatinib; format: cell-based
[6] = molecular target: Tyrosine-protein kinase Lyn (Homo sapiens) (UniProt P07948); assay: Induction of Lyn phosphorylation in human K562 CML cells assessed as peptide substrate consumption at 25 uM after 10 mins; format: cell-based
[7] = molecular target: Tyrosine-protein kinase Lyn (Homo sapiens) (UniProt P07948); assay: Induction of Lyn phosphorylation in human K562 CML cells assessed as peptide substrate consumption at 25 uM after 20 mins; format: cell-based
[8] = molecular target: Tyrosine-protein kinase Lyn (Homo sapiens) (UniProt P07948); assay: Induction of Lyn phosphorylation in human K562 CML cells assessed as peptide substrate consumption at 25 uM after 40 mins; format: cell-based
[9] = molecular target: Tyrosine-protein kinase Lyn (Homo sapiens) (UniProt P07948); assay: Induction of Lyn phosphorylation in human K562 CML cells assessed as peptide substrate consumption at 25 uM after 60 mins; format: cell-based
[10] = molecular target: Tyrosine-protein kinase Lyn (Homo sapiens) (UniProt P07948); assay: Induction of Lyn phosphorylation in human K562 CML cells assessed as peptide substrate consumption at 25 uM after 10 mins in presence of Bcr-Abl inhibitor Imatinib; format: cell-based
[11] = molecular target: Tyrosine-protein kinase Lyn (Homo sapiens) (UniProt P07948); assay: Induction of Lyn phosphorylation in human K562 CML cells assessed as peptide substrate consumption at 25 uM after 20 mins in presence of Bcr-Abl inhibitor Imatinib; format: cell-based
[12] = molecular target: Tyrosine-protein kinase Lyn (Homo sapiens) (UniProt P07948); assay: Induction of Lyn phosphorylation in human K562 CML cells assessed as peptide substrate consumption at 25 uM after 40 mins in presence of Bcr-Abl inhibitor Imatinib; format: cell-based
[13] = molecular target: Tyrosine-protein kinase Lyn (Homo sapiens) (UniProt P07948); assay: Induction of Lyn phosphorylation in human K562 CML cells assessed as peptide substrate consumption at 25 uM after 60 mins in presence of Bcr-Abl inhibitor Imatinib; format: cell-based

SMILES: CC[C@H](C)[C@H](NC(=O)[C@H](CCC(=O)O)NC(=O)[C@H](CCC(=O)O)NC(=O)[C@H](CCC(=O)O)NC(=O)[C@H](C)N)C(=O)N[C@@H](Cc1ccc(O)cc1)C(=O)NCC(=O)N[C@@H](CCC(=O)O)C(=O)N[C@@H](Cc1cn(Cc2cc(=O)oc3cc(NC(C)=O)ccc23)nn1)C(=O)N[C@@H](CCC(=O)O)C(=O)N[C@@H](C)C(=O)N[C@@H](CCCCN)C(=O)N[C@@H](CCCCN)C(=O)N[C@@H](CCCCN)C(=O)N[C@@H](CCCCN)C(N)=O
- fold change (FC) [1]: 1.3

SMILES: CC[C@H](C)[C@H](NC(=O)[C@H](CCC(=O)O)NC(=O)[C@H](CCC(=O)O)NC(=O)[C@H](CCC(=O)O)NC(=O)[C@H](C)N)C(=O)N[C@@H](Cc1ccc(O)cc1)C(=O)NCC(=O)N[C@@H](CCC(=O)O)C(=O)N[C@@H](Cc1cn(Cc2cc(=O)oc3cc(N)ccc23)nn1)C(=O)N[C@@H](CCC(=O)O)C(=O)N[C@@H](C)C(=O)N[C@@H](CCCCN)C(=O)N[C@@H](CCCCN)C(=O)N[C@@H](CCCCN)C(=O)N[C@@H](CCCCN)C(N)=O
- fold change (FC) [1]: 1.3

SMILES: CC[C@H](C)[C@H](NC(=O)[C@H](CCC(=O)O)NC(=O)[C@H](CCC(=O)O)NC(=O)[C@H](CCC(=O)O)NC(=O)[C@H](C)N)C(=O)N[C@@H](Cc1ccc(O)cc1)C(=O)NCC(=O)N[C@@H](CCC(=O)O)C(=O)N[C@@H](Cc1cn(-c2cc3ccc(O)cc3oc2=O)nn1)C(=O)N[C@@H](CCC(=O)O)C(=O)N[C@@H](C)C(=O)N[C@@H](CCCCN)C(=O)N[C@@H](CCCCN)C(=O)N[C@@H](CCCCN)C(=O)N[C@@H](CCCCN)C(N)=O (H-AEEEIYGE[X4]EAKKKK-NH2)
- fold change (FC) [1]: 1.1

SMILES: CC[C@H](C)[C@H](NC(=O)[C@H](CCC(=O)O)NC(=O)[C@H](CCC(=O)O)NC(=O)[C@H](CCC(=O)O)NC(=O)[C@H](C)N)C(=O)N[C@@H](Cc1ccc(O)cc1)C(=O)NCC(=O)N[C@@H](CCC(=O)O)C(=O)N[C@@H](Cc1cn(CCNS(=O)(=O)c2cccc3c(N(C)C)cccc23)nn1)C(=O)N[C@@H](CCC(=O)O)C(=O)N[C@@H](C)C(=O)N[C@@H](CCCCN)C(=O)N[C@@H](CCCCN)C(=O)N[C@@H](CCCCN)C(=O)N[C@@H](CCCCN)C(N)=O
- fold change (FC) [1]: 0

SMILES: CC[C@H](C)[C@H](NC(=O)[C@H](CCC(=O)O)NC(=O)[C@H](CCC(=O)O)NC(=O)[C@H](CCC(=O)O)NC(=O)[C@H](C)N)C(=O)N[C@@H](Cc1ccc(O)cc1)C(=O)NCC(=O)N[C@@H](CCC(=O)O)C(=O)N[C@@H](Cc1cn(-c2cccc3ccccc23)nn1)C(=O)N[C@@H](CCC(=O)O)C(=O)N[C@@H](C)C(=O)N[C@@H](CCCCN)C(=O)N[C@@H](CCCCN)C(=O)N[C@@H](CCCCN)C(=O)N[C@@H](CCCCN)C(N)=O (H-AEEEIYGE[X3]EAKKKK-NH2)
- fold change (FC) [1]: 0

SMILES: CC[C@H](C)[C@H](NC(=O)[C@H](CCC(=O)O)NC(=O)[C@H](CCC(=O)O)NC(=O)[C@H](CCC(=O)O)NC(=O)[C@H](C)N)C(=O)N[C@@H](Cc1ccc(O)cc1)C(=O)NCC(=O)N[C@@H](CCC(=O)O)C(=O)N[C@@H](Cc1cn(-c2ccc3c(C)cc(=O)[nH]c3c2)nn1)C(=O)N[C@@H](CCC(=O)O)C(=O)N[C@@H](C)C(=O)N[C@@H](CCCCN)C(=O)N[C@@H](CCCCN)C(=O)N[C@@H](CCCCN)C(=O)N[C@@H](CCCCN)C(N)=O (H-AEEEIYGE[X5]EAKKKK-NH2)
- fold change (FC) [1]: 0

SMILES: CC[C@H](C)[C@H](NC(=O)[C@H](CCC(=O)O)NC(=O)[C@H](CCC(=O)O)NC(=O)[C@H](CCC(=O)O)NC(=O)[C@H](C)N)C(=O)N[C@@H](Cc1ccc(O)cc1)C(=O)NCC(=O)N[C@@H](CCC(=O)O)C(=O)N[C@@H](Cc1cn(-c2ccc3ccc4cccc5ccc2c3c45)nn1)C(=O)N[C@@H](CCC(=O)O)C(=O)N[C@@H](C)C(=O)N[C@@H](CCCCN)C(=O)N[C@@H](CCCCN)C(=O)N[C@@H](CCCCN)C(=O)N[C@@H](CCCCN)C(N)=O (H-AEEEIYGE[X1]EAKKKK-NH2)
- fold change (FC) [1]: 4
- fold change (FC) [2]: 4
- Activity [3]: tde
- Activity [4]: inactive
- Activity [5]: inactive
- Activity [6]: 1.35%
- Activity [7]: 1.67%
- Activity [8]: 2.01%
- Activity [9]: 4.24%
- Activity [10]: 0.18%
- Activity [11]: 0.25%
- Activity [12]: 0.33%
- Activity [13]: 0.41%

SMILES: CC[C@H](C)[C@H](NC(=O)[C@H](CCC(=O)O)NC(=O)[C@H](CCC(=O)O)NC(=O)[C@H](CCC(=O)O)NC(=O)[C@H](C)N)C(=O)N[C@@H](Cc1ccc(O)cc1)C(=O)NCC(=O)N[C@@H](CCC(=O)O)C(=O)N[C@@H](Cc1cn(-c2ccc3c4c(cccc24)C(=O)N(CC)C3=O)nn1)C(=O)N[C@@H](CCC(=O)O)C(=O)N[C@@H](C)C(=O)N[C@@H](CCCCN)C(=O)N[C@@H](CCCCN)C(=O)N[C@@H](CCCCN)C(=O)N[C@@H](CCCCN)C(N)=O (H-AEEEIYGE[X2]EAKKKK-NH2)
- fold change (FC) [1]: 2.5
